Assay results as given in ChEMBL document CHEMBL6120963, “Discovery of Novel PROTAC SIRT6 Degraders with Potent Efficacy against Hepatocellular Carcinoma” (J Med Chem, 2024).
Calls of active or inactive are those of the source. The calls are words filed in the database; no cut-off is given here.

What was measured:
[1] = target: T1, Protein cereblon/NAD-dependent protein deacylase sirtuin-6 (Homo sapiens, UniProt Q8N6T7+Q96SW2); assay: PROTAC activity at CRBN/SIRT6 in human SK-HEP1 cells assessed as induction of SIRT6 degradation incubated for 36 hrs by Western blot analysis; type: cell-based
Target sequence in this assay (Q8N6T7 whole entry): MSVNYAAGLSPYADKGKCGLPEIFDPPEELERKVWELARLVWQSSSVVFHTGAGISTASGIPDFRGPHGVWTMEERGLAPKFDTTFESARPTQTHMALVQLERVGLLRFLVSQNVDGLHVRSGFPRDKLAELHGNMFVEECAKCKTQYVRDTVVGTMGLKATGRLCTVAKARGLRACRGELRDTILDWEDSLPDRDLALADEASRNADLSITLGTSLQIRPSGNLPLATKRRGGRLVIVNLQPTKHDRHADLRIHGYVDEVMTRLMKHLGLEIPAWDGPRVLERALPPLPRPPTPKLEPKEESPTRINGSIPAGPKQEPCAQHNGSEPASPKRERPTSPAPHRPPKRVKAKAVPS
Target sequence in this assay (Q96SW2 whole entry): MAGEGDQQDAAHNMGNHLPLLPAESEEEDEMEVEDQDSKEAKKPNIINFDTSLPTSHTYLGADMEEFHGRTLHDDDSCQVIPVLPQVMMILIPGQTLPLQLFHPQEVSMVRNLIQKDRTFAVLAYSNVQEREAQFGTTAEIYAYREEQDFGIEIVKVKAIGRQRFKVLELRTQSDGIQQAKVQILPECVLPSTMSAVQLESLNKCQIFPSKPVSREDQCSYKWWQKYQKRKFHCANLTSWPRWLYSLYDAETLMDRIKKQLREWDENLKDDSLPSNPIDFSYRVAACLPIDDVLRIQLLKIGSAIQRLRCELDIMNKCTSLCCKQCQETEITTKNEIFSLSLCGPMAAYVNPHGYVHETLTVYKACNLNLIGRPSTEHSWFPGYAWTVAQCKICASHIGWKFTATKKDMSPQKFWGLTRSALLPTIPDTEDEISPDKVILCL

[2] = tested on: Huh-7; assay: Effect on SIRT1 expression in human Huh-7 cells at 0.002 to 1 uM incubated for 36 hrs by Western blot analysis; type: functional, cell-based; conditions: dose 0.002-1 µM
[3] = tested on: SK-HEP1; assay: Effect on SIRT1 expression in human SK-HEP1 cells at 0.002 to 1 uM incubated for 36 hrs by Western blot analysis; type: functional, cell-based; conditions: dose 0.002-1 µM
[4] = tested on: SK-HEP1; assay: Downregulation of ANKRD44 expression in human SK-HEP1 cells at 2.5 uM incubated for 36 hrs; type: functional, cell-based
[5] = tested on: SK-HEP1; assay: Induction of DNA damage in human SK-HEP1 cells assessed as long tail moment incubated for 36 hrs followed by irradiation (10 Gy) for 6 hrs by comet assay; type: functional, cell-based
[6] = tested on: Huh-7; assay: Effect on SIRT7 expression in human Huh-7 cells at 0.002 to 1 uM incubated for 36 hrs by Western blot analysis; type: functional, cell-based; conditions: dose 0.002-1 µM
[7] = target: T1, Protein cereblon/NAD-dependent protein deacylase sirtuin-6; assay: PROTAC activity at CRBN/SIRT6 in human SK-HEP1 cells assessed as induction of SIRT6 degradation at 2.5 uM incubated for 36 hrs by proteomic analysis; type: cell-based
Target sequence in this assay (Q8N6T7 2-355 limits assumed): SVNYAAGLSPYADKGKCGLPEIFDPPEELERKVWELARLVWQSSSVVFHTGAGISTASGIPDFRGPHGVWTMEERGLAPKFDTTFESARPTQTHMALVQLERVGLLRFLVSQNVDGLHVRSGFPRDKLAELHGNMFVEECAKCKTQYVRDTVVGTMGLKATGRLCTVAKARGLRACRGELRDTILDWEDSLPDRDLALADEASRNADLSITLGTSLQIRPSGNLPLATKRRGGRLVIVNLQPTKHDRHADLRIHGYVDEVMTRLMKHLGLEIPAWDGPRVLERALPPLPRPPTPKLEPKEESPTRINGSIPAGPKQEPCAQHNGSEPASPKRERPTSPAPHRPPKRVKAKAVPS
Target sequence in this assay (Q96SW2 whole entry partner): as the sequence (Q96SW2 whole entry) above

[8] = target: T1, Protein cereblon/NAD-dependent protein deacylase sirtuin-6; assay: PROTAC activity at CRBN/SIRT6 in human Hep3B cells assessed as induction of SIRT6 degradation incubated for 24 hrs by Western blot analysis; type: cell-based
Target sequence in this assay (Q8N6T7 2-355 limits assumed): as the sequence (Q8N6T7 2-355 limits assumed) above
Target sequence in this assay (Q96SW2 whole entry partner): as the sequence (Q96SW2 whole entry) above

[9] = tested on: SK-HEP1; assay: Downregulation of ALDOB expression in human SK-HEP1 cells at 2.5 uM incubated for 36 hrs; type: functional, cell-based
[10] = tested on: SK-HEP1; assay: Downregulation of CCPG1 expression in human SK-HEP1 cells at 2.5 uM incubated for 36 hrs in presence of MLN4924; type: functional, cell-based
[11] = Toxicity in BALB/c nude mouse xenografted with human SK-HEP1 cells assessed as histopathological abnormalities in spleen at 10 mg/kg treated for 28 to 30 days by H and E staining based analysis; type: organism-based; conditions: in vivo, time 28-30 day
[12] = tested on: SK-HEP1; assay: Induction of DNA damage in human SK-HEP1 cells xenografted in BALB/c nude mouse assessed as increase in gamma-H2AX level at 10 mg/kg treated for 28 to 30 days under irradiation (3 Gy); type: functional, organism-based; conditions: time 28-30 day
[13] = Toxicity in BALB/c nude mouse xenografted with human SK-HEP1 cells assessed as histopathological abnormalities in lungs at 10 mg/kg treated for 28 to 30 days under irradiation (3 Gy) by H and E staining based analysis; type: organism-based; conditions: in vivo, time 28-30 day
[14] = tested on: SK-HEP1; assay: Effect on H3K56Ac expression in human SK-HEP1 cells at 0.002 to 1 uM incubated for 36 hrs by Western blot analysis; type: functional, cell-based; conditions: dose 0.002-1 µM
[15] = tested on: SK-HEP1; assay: Inhibition of colony formation in human SK-HEP1 cells at 2.5 uM incubated for 10 to 14 days with replacement of medium containing compounds on every 3 days in presence of sorafenib by crystal violet staining based analysis; type: functional, cell-based; conditions: time 10-14 day
[16] = tested on: SK-HEP1; assay: Effect of genes related to protein heterodimerization in human SK-HEP1 cells at 2.5 uM incubated for 36 hrs by GSEA analysis; type: functional, cell-based
[17] = tested on: Huh-7; assay: Inhibition of colony formation in human Huh-7 cells at 5 to 10 uM incubated for 10 to 14 days with replacement of medium containing compounds on every 3 days by crystal violet staining based analysis; type: functional, cell-based; conditions: dose 5-10 µM, time 10-14 day
[18] = target: T1, Protein cereblon/NAD-dependent protein deacylase sirtuin-6; assay: PROTAC activity at CRBN/SIRT6 in human SK-HEP1 cells assessed as induction of SIRT6 degradation upto 10 uM incubated for 36 hrs by Western blot analysis relative to control; type: cell-based
Target sequence in this assay (Q8N6T7 2-355 limits assumed): as the sequence (Q8N6T7 2-355 limits assumed) above
Target sequence in this assay (Q96SW2 whole entry partner): as the sequence (Q96SW2 whole entry) above

[19] = tested on: SK-HEP1; assay: Effect of genes related to cell apoptosis in human SK-HEP1 cells at 2.5 uM incubated for 36 hrs by GSEA analysis; type: functional, cell-based
[20] = tested on: SK-HEP1; assay: Downregulation of NAIF1 expression in human SK-HEP1 cells at 2.5 uM incubated for 36 hrs in presence of MG132; type: functional, cell-based
[21] = target: T1, Protein cereblon/NAD-dependent protein deacylase sirtuin-6; assay: PROTAC activity at CRBN/SIRT6 in pomalidomide-treated human SK-HEP1 cells assessed as induction of SIRT6 degradation at 2.5 uM treated for 36 hrs by Western blot analysis; type: cell-based
Target sequence in this assay (Q8N6T7 2-355 limits assumed): as the sequence (Q8N6T7 2-355 limits assumed) above
Target sequence in this assay (Q96SW2 whole entry partner): as the sequence (Q96SW2 whole entry) above

[22] = tested on: SK-HEP1; assay: Antitumor activity against human SK-HEP1 cells xenografted in BALB/c nude mouse at 10 mg/kg treated for 28 to 30 days under irradiation (3 Gy) (reference value: 38.4 %); type: functional; conditions: time 28-30 day
[23] = tested on: SK-HEP1; assay: Downregulation of NAIF1 expression in human SK-HEP1 cells at 2.5 uM incubated for 36 hrs; type: functional, cell-based
[24] = tested on: SK-HEP1; assay: Antitumor activity against human SK-HEP1 cells xenografted in BALB/c nude mouse assessed as tumor growth suppression at 10 mg/kg treated for 28 to 30 days; type: functional, organism-based; conditions: time 28-30 day
[25] = Toxicity in BALB/c nude mouse xenografted with human SK-HEP1 cells assessed as histopathological abnormalities in lungs at 10 mg/kg treated for 28 to 30 days by H and E staining based analysis; type: organism-based; conditions: in vivo, time 28-30 day
[26] = Toxicity in BALB/c nude mouse xenografted with human SK-HEP1 cells assessed as histopathological abnormalities in heart at 10 mg/kg treated for 28 to 30 days under irradiation (3 Gy) by H and E staining based analysis; type: organism-based; conditions: in vivo, time 28-30 day
[27] = tested on: SK-HEP1; assay: Inhibition of colony formation in human SK-HEP1 cells at 5 uM incubated for 10 to 14 days with replacement of medium containing compounds on every 3 days in presence of sorafenib by crystal violet staining based analysis; type: functional, cell-based; conditions: time 10-14 day
[28] = target: T1, Protein cereblon/NAD-dependent protein deacylase sirtuin-6; assay: PROTAC activity at CRBN/SIRT6 in human SK-HEP1 cells assessed as disruption of CHD4 recruitment to DSB sites at 2.5 uM incubated for 36 hrs followed by irradiation (10 Gy) treatment for 4 hrs by Western blot analysis; type: cell-based; conditions: time 40.0 hrs
Target sequence in this assay (Q8N6T7 2-355 limits assumed): as the sequence (Q8N6T7 2-355 limits assumed) above
Target sequence in this assay (Q96SW2 whole entry partner): as the sequence (Q96SW2 whole entry) above

[29] = target: T1, Protein cereblon/NAD-dependent protein deacylase sirtuin-6; assay: PROTAC activity at CRBN/SIRT6 in human SK-HEP1 cells assessed as induction of SIRT6 degradation at 2.5 uM incubated for 36 hrs by Western blot analysis; type: cell-based
Target sequence in this assay (Q8N6T7 2-355 limits assumed): as the sequence (Q8N6T7 2-355 limits assumed) above
Target sequence in this assay (Q96SW2 whole entry partner): as the sequence (Q96SW2 whole entry) above

[30] = tested on: SK-HEP1; assay: Downregulation of FBXO44 expression in human SK-HEP1 cells at 2.5 uM incubated for 36 hrs in presence of MLN4924; type: functional, cell-based
[31] = target: T1, Protein cereblon/NAD-dependent protein deacylase sirtuin-6; assay: PROTAC activity at CRBN/SIRT6 in human SK-HEP1 cells assessed as reduction in number of SIRT6 foci incubated for about 36 hrs by immunofluorescence based analysis; type: cell-based; conditions: dose <= 5.0 µM
[32] = tested on: SK-HEP1; assay: Induction of apoptosis in human SK-HEP1 cells at 2.5 uM incubated for 72 hrs in presence of sorafenib by Annexin V-FITC/PI staining based flow cytometry; type: functional, cell-based
[33] = tested on: SK-HEP1; assay: Inhibition of colony formation in human SK-HEP1 cells at 2.5 uM incubated for 10 to 14 days with replacement of medium containing compounds on every 3 days combined with irradiation (3 Gy) by crystal violet staining based analysis; type: functional, cell-based; conditions: time 10-14 day
[34] = Toxicity in BALB/c nude mouse xenografted with human SK-HEP1 cells assessed as pathological damage in kidney at 10 mg/kg treated for 28 to 30 days by H and E staining based analysis; type: organism-based; conditions: in vivo, time 28-30 day
[35] = tested on: SK-HEP1; assay: Effect of genes related to mitochondrial matrix in human SK-HEP1 cells at 2.5 uM incubated for 36 hrs by GSEA analysis; type: functional, cell-based

DC50 [1]: 45.3 nM
Activity [7]: Active
Emax [18]: > 98%
Activity [21]: inactive
Activity [28]: Active
Activity [29]: Active
Activity [31]: Dose-dependent-effect
SMILES: Nc1cc(N2CCN(CC3CCN(c4cc5c(cc4F)C(=O)N(C4CCC(=O)NC4=O)C5=O)CC3)CC2)ccc1[N+](=O)[O-] (stereo not given)
Activity [2]: No effect
Activity [3]: No effect
Activity [4]: Active
Activity [5]: Active
Activity [6]: No effect
Activity [8]: Active; Reached A Plateau After 36 Hrs Of Treatment
Activity [9]: Active
Activity [10]: inactive
Activity [11]: Non-toxic
Activity [12]: Active
Activity [13]: Non-toxic
Activity [14]: No effect
inhibition [15]: Active; Exhibited Superior To Compound Alone
Activity [16]: Active
inhibition [17]: Active
Activity [19]: Active
Activity [20]: inactive
T/C [22]: 26.1%
Activity [23]: Active
Activity [24]: Active
Activity [25]: Non-toxic
Activity [26]: Non-toxic
inhibition [27]: Not active; Exhibited Weaker Inhibition
Activity [30]: inactive
Activity [32]: Active
inhibition [33]: Active; Exhibited Superior To Compound Alone
Activity [34]: Non-toxic
Activity [35]: Active
